One substance from patent US20060052311A1, “Peptide inhibitors of smac protein binding to inhibitor of apoptosis proteins (IAP)” (priority 2002, published 2006) can be followed below.

Broadly, the IC50 is the concentration needed to halve the response being measured. A low value points to greater potency in that assay.

For the assay, the system named is GST-BIR3 fusion protein. The assay can be described thus: FMAT solution phase assay: competition of GST-BIR3 off beads carrying biotinylated Smac 7-mer peptide. The following applies: competing GST-BIR3 off beads with immobilized biotinylated Smac 7-mer peptide (AVPIAQK). It is filed as binding. The procedure:
In order to measure the ability of the inventive compounds to bind the BIR3 peptide binding pocket, a solution phase assay on the FMAT technology platform is utilized. Biotinylated Smac 7-mer peptide (AVPIAQK, lysine ε-amino group is biotinylated) is immobilized on streptavidin coated beads. GST-BIR3 fusion protein is precipitated with FMAT beads and is detected using fluorescent tagged anti-GST antibodies. […] The IC50 for non-biotinylated Smac is 400 nM.

Consider “non-biotinylated Smac: Non-biotinylated Smac peptide; the biotinylated bead-bound form is the Smac 7-mer AVPIAQK”, for which the IC50 came out at 400 nM.
